# Laboratory results published in paper PMC4010493, “Molecular Characterization and Expression Analysis of ATP-Gated P2X7 Receptor Involved in Japanese Flounder (Paralichthys olivaceus) Innate Immune Response” (PLoS ONE, 2014).
# Columns and labels:
# Format in all cases: cell-based
# poP2RX7 [1] = biological target: T1, poP2RX7 (Paralichthys olivaceus, UniProt A0A059T2C6); assay: two-electrode voltage clamp, Xenopus oocytes
# T1 construct: Xenopus laevis oocytes; homotrimer
# rP2RX7 [2] = biological target: T2, rP2RX7 (Rattus norvegicus, UniProt Q64663); assay: two-electrode voltage clamp, Xenopus oocytes
# T2 construct: gene P2rx7; rat P2RX7 cDNA in Xenopus laevis oocytes; homotrimer
# T2 sequence (Q64663 1-595): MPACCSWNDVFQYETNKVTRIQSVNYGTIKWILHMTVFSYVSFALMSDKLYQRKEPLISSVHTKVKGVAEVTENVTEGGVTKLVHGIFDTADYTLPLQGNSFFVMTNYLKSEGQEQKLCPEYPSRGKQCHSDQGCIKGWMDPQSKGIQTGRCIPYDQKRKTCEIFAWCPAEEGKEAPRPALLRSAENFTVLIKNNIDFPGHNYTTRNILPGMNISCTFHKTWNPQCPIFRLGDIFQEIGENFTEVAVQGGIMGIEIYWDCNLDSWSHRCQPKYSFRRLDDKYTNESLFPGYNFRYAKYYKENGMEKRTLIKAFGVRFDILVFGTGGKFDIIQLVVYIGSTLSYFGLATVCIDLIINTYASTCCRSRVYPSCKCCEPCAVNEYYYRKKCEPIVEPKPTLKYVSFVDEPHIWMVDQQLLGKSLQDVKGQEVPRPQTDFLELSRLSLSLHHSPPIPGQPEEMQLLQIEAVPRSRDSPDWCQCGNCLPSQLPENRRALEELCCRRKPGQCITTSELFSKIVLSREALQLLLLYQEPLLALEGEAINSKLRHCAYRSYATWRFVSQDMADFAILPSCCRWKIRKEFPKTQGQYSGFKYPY
# rP2RX7 [3] = biological target: T2, rP2RX7; assay: two-electrode voltage clamp, inhibition of ATP-evoked current; conditions: antagonist; 2 min pre-application, then co-applied with ATP; -70 mV, pH 7.5
# poP2RX7 [4] = biological target: T1, poP2RX7; assay: as above; conditions: antagonist; 2 min pre-application, then co-applied with ATP; -70 mV, pH 7.5
# poP2RX7 [5] = biological target: T1, poP2RX7; assay: as above; conditions: antagonist; 2 min pre-application, then co-applied with ATP; -70 mV, pH 7.5; remark: listed apart in the source
# T1 sequence (A0A059T2C6 entry or part of it): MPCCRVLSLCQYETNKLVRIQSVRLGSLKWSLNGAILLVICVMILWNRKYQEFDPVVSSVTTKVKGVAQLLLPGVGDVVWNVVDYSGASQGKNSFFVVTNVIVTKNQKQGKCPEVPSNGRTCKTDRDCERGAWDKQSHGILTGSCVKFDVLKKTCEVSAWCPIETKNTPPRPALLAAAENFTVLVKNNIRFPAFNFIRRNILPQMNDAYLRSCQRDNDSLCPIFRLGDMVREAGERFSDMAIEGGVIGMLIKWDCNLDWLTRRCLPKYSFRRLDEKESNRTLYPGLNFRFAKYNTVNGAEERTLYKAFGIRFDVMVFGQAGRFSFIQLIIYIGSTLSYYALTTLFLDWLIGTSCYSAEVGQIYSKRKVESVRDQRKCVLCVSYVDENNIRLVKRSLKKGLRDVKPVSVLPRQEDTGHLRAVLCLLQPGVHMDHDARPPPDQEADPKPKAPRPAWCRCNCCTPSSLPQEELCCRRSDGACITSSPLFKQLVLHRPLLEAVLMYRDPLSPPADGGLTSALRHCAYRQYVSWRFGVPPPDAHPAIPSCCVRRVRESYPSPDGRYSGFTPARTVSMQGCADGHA
EC50 (poP2RX7 [1]) [µM],EC50 (rP2RX7 [2]) [µM],SMILES,inhibition (rP2RX7 [3]),inhibition at 20 μM (poP2RX7 [4]),inhibition at 1 μM (poP2RX7 [5])
790 ± 81,376 ± 120,Nc1ncnc2c1ncn2[C@@H]1O[C@H](COP(=O)(O)OP(=O)(O)OP(=O)(O)O)[C@@H](O)[C@H]1O [ATP],–,–,–
–,–,O=C(CC12CC3CC(CC(C3)C1)C2)Nc1cccc2nc(NCCNCCO)ccc12 [AZ10606120],AZ10606120 was less potent in poP2RX7 than in rP2RX7,AZ10606120 was less potent in poP2RX7 than in rP2RX7,–
–,–,CCOc1ccc(Nc2ccc(C(=C3C=CC(=[N+](CC)Cc4cccc(S(=O)(=O)[O-])c4)C=C3C)c3ccc(N(CC)Cc4cccc(S(=O)(=O)O)c4)cc3C)cc2)cc1 [BBG],inhibition induced by BBG or AZ10606120 (AZ) at poP2RX7 (open bars) and rP2RX7,–,ATP-evoked currents at poP2RX7 could be inhibited by both of the antagonists
743 ± 299,13.3 ± 1.6,Nc1ncnc2c1ncn2[C@@H]1O[C@H](COP(=O)(O)OP(=O)(O)OP(=O)(O)O)[C@@H](OC(=O)c2ccc(C(=O)c3ccccc3)cc2)[C@H]1O [BzATP],–,–,–
